Drawing on publication doi:10.1101/758409v1 (biorxiv, 2019), this text covers EC50 for 1 molecule.

In this assay the target is DDA1-DDB1ΔB-DCAF15Δpro triplex with R1R2 of RBM39 (Homo sapiens, UniProt Q14498+Q66K64, Q66K64:DEL276-383). Put plainly: TR-FRET, SPLAM-induced ternary complex formation, Eu-anti-His and APC-anti-FLAG. It counts as binding. (In general: Time-resolved FRET reads energy transfer from a long-lived donor to a nearby acceptor.)

The term EC50 denotes the concentration that produces a half-maximal response. Consider `NS(=O)(=O)c1ccc(S(=O)(=O)Nc2cccc3c(Cl)c[nH]c23)cc1` [indisulam], for which the EC50 came out at 5 nM. This lies in the single-digit nanomolar range.
